Data from patent EP1935986B1, “Luminogenic and fluorogenic compounds and methods to detect molecules or conditions” (priority 2005, dated 2006).

Target: T1, CYP1A2 (Homo sapiens, UniProt P05177)
T1 construct: purchased Discovery Labware (BD/Gentest); host or cells: insect cell expression system (membrane fractions)
T1 sequence (P05177 2-516 limits assumed): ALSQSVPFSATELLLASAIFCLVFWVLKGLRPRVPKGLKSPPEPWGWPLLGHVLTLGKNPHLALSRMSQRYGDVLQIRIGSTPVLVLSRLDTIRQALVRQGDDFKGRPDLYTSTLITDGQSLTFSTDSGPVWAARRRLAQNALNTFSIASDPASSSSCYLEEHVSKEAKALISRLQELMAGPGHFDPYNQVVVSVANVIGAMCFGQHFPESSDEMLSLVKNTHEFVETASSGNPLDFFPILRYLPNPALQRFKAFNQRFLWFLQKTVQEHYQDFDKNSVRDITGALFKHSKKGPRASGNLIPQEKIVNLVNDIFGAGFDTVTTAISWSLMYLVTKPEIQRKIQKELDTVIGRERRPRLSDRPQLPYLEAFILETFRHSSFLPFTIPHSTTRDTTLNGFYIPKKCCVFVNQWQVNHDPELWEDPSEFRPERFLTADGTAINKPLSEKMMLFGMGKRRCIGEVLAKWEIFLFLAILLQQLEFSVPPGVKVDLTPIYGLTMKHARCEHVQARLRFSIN
Assay: Two-step luminescent P450 screen of luciferin derivatives
Assay type: biochemical
Settings: 50 µM substrate, 1 pmole P450; result in words
Procedure: P450s are Supersomes™ purchased from Discovery Labware (BD/Gentest). […] HLM is human liver microsomes.
1X substrate concentration: 50 µM.

| Compound | P450 activity / selectivity with the derivative as substrate |
| --- | --- |
| COc1ccc2nc(C3=N[C@@H](C(=O)O)CS3)ccc2c1 [Quinolylluciferin 6-methyl ether, 2-(6-methoxyquinolin-2-yl)-4,5-dihydrothiazole-4-carboxylate] | preferred substrate |
| COc1ccc2nc(C3=N[C@@H](C(=O)NN)CS3)sc2c1 [luciferin-6-methylether hydrazide, Hydrazide of luciferin methyl ether] | good selectivity |
